Source: patent publication US6545050B1, “Aryl sulphonamide amino acid esters and analogues” (Bayer Aktiengesellschaft, priority 1998, dated 2003)
Structures can show the parent of a compound that is named as a salt.

What was measured:
[1] = target: T1, rat CB1 receptor (Rattus norvegicus, UniProt P20272); experiment: CB1 luciferase reporter gene test (CHOluc9 cells stably transfected with rat CB1); assay type: cell-based; conditions: forskolin stimulated
T1 construct: contains an open reading frame of 1419 base pairs which corresponds to a protein of 473 amino acids; expressed in transfected cells; host or cells: CHOluc9 reporter cells stably transfected with plasmid CMV-RH (rat CB1 cDNA in pRc/CMV)
T1 sequence (P20272 whole entry): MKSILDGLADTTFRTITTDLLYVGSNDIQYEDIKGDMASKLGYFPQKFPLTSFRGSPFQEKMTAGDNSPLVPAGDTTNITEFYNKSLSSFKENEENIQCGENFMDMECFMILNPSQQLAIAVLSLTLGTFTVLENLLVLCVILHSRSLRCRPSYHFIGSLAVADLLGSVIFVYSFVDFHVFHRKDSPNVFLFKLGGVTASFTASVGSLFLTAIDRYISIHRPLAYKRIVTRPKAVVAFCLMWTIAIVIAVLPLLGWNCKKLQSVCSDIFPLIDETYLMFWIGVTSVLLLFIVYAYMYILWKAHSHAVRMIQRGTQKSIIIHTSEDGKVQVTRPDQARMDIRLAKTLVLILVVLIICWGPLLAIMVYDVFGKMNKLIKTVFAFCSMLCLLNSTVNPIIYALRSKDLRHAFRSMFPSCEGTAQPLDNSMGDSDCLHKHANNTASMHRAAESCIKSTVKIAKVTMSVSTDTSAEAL
Description: CB1—Luciferase Reporter Gene Test
1. Cloning of the Rat Cannabinoid Receptor CB1
Total RNA from rat brain (the tissue was taken from freshly killed animals and shock-frozen in liquid nitrogen) was isolated by acidic guanidinium thiocyanate/phenol/chloroform extraction (J. Biol. Chem. 1979, 18, 5294) and converted into cDNA by means of reverse transcriptase and random primers (in each case from Invitrogen). The polymerase chain reaction (PCR, conditions: 4 min 94° C., 1H; 1 min 94° C.; 2 min 53° C.; 1 min 72° C., 50 cycles; 1 min 94° C., 2 min 53° C., 4 min 72° C., 1H) was carried out in a Perkin Elmer thermocycler using the enzyme Taq polymerase (Perkin Elmer); the oligonucleotide primers employed (bases 99 to 122: 5′63′, “down”; 1556-1575: 3′75′, “up”) were derived from the published sequence of the rat cannabinoid receptor (Nature 1990, 346, 561) and were synthesized on a DNA synthesizer, model 1380 from Applied Biosystems. One part of the PCR reaction was separated in a 1% strength agarose gel in 1H TBE buffer and then stained with ethidium bromide, only one band having the expected length being visible (approximately 1.5 kb). This PCR product was subcloned into the TA cloning vector (Invitrogen) and the nucleotide sequence of the insert was determined by the dideoxynucleotide chain termination reaction using T7DNA polymerase (Sequenase, USA/Amersham). The insert has a length of 1477 base pairs and contains an open reading frame of 1419 base pairs which corresponds to a protein of 473 amino acids. The number of base pairs, the position of the open reading frame and the number of amino acids agree with the published sequence. Computer analyses were carried out with the aid of the GCG software suite (Genetic Computer Group). The cDNA insert was subcloned into the expression vector pRc/CMV (Invitrogen) after partial digestion with HindIII and NotI (Biolabs). This construct (plasmid CMV-RH) was employed for transfection experiments.
2. Stable Transfection of the CHOluc9 Reporter Cells
CHOluc9 cells were cultured in 50% Dulbecco's modified Eagle medium/50% F-12 (DMEM/F12) which contained 10% foetal calf serum (FCS). Transfections were prepared in 6-well plates. 7.5 μg of Qiagen-purified CMV-RH plasmid DNA were added per […] with the DOTAP transfection system, corresponding to the experimental protocol of the manufacturer (Boehringer Mannheim). Transfected cells were selected using 1 mg/ml G418 and individual clones were obtained by limiting dilution in 96-well plates. Cell lines which express the cannabinoid receptor were identified for the inhibition of reporter gene expression after incubation with the cannabinoid receptor agonist, WIN-55,212-2, in the presence of forskolin. Several stably transfected and subcloned cell lines were further characterized by means of RT-PCR, as described under 1.
3. Test Optimization and Pharmacological Characterization of the CHOCB1 Reporter Cell Line
With the aim of high sensitivity and reproducibility, low variance and high suitability for carrying out on the robotic system, the luciferase test was optimized by variation of several test parameters, such as, for example, cell density, duration of the growth phase and the test incubation, forskolin concentration, medium composition. The following test protocol was used for pharmacological characterization of the cells and for robot-assisted substance screening: the stock cultures were cultured in 50% Dulbecco's modified Eagle medium/50% F-12 (DMEM/F12) with 10% FCS at 37° C. under 10% CO2 and in each case split 1:10 after 2 to 3 days. Test cultures were inoculated into 96-well plates at 5000 cells per well and cultured at 37° C. for 70 hours. The cultures were then carefully washed with phosphate-buffered saline and reconstituted using serum-free ultra-CHO medium (Bio-Whittaker). The substances dissolved in DMSO were diluted 1H in medium and pipetted into the test cultures (maximum DMSO final concentration in the test batch: 0.5%). […]

[2] = Solubility determination by precipitation method in physiological saline; assay type: physicochemical; conditions: saline or isotonic, kinetic from dmso stock, 25° C., shaken 1 hour, HPLC
Description: To determine the solubility, a precipitation method was used:
10 mg of the test substance are completely dissolved in 50 μl of DMSO (stock solution). From this solution, 20 μl are added to 2000 μl of physiological saline. This solution in turn is shaken at 25° C. in a Thermomixer Comfort (from Eppendorf) at 1400 rpm for 1 hour, for equilibration.
The precipitated fractions of the test substance are centrifuged off at 14,000 rpm for 5 min, using a Biofuge 15 from Heraeus. 1300 μl of the supernatant are again centrifuged using a Microfuge from Beckmann, at 45,000 rpm=125,000 g.
10 μl of this centrifugation supernatant are then diluted with 1000 μl of DMSO, and this solution is measured by HPLC. (Hewlett Packard 1090, method: gradient of 100% PBS buffer pH=4 over 15 min to 10% buffer/90% acetonitrile, column: RP18)
The measured peak area of the HPLC determination is converted into the substance concentration using a calibration curve. For the calibration curve, 20 μl of the stock solution are successively diluted with DMSO in such a manner that 5 concentrations of from 2.5 mg/l to 2000 mg/l are obtained. These solutions are likewise measured by HPLC (method see above) and the peak areas are plotted against the concentrations.

[3] = tested on: rats; experiment: Rat hypothermia - agonism testing; assay type: in vivo; conditions: i.v. administration
Description: Five minutes after determination of the basal body temperature via an oesophageal temperature probe, the test substance is administered (i.v.). A control group receives only the solvent of the test substances, likewise i.v. The body temperature is measured 7.5, 15, 30 and 60 minutes after i.v. administration. The group size per dose is 5-7 animals (rats).

SMILES	IC50 [1] [nM]	solubility at 1 h [2] [µg/mL]	ED−1° C. (effective dose for 1° C. body temperature reduction) [3] [mg/kg]
NCCCCCCC(=O)OC[C@@H]1Cc2cccc(Oc3cccc(OS(=O)(=O)CCCC(F)(F)F)c3)c2C1 [Example 6, (R)-3-[2-(7-Aminoheptanoyloxymethyl)-indanyl-4-oxy)-phenyl 4,4,4-trifluoro-1-butanesulphonate hydrochloride]	0.85	–	–
CC(C)(C)OC(=O)NCC(=O)OC[C@@H]1Cc2cccc(Oc3cccc(OS(=O)(=O)CCCC(F)(F)F)c3)c2C1 [Example 1, (R)-3-[2-(N-tert-butyloxycarbonylglycinyl)-oxymethyl-indanyl-4-oxy]-phenyl 4,4,4-trifluoro-1-butanesulphonate]	0.35	–	–
CC(C)(C)OC(=O)NCCCCCCC(=O)OC[C@@H]1Cc2cccc(Oc3cccc(OS(=O)(=O)CCCC(F)(F)F)c3)c2C1 [Example 2, (R)-3-[2-(7-N-tert-Butyloxycarbonylaninoheptanoyloxymethyl)-indanyl-4-oxy]-phenyl 4,4,4-trifluoro-1-butanesulphonate]	0.13	–	–
NCC(=O)OC[C@@H]1Cc2cccc(Oc3cccc(OS(=O)(=O)CCCC(F)(F)F)c3)c2C1 [Example 5, (R)-3-(2-Glycinyl-oxymethyl)-indanyl-4-oxy)-phenyl 4,4,4-trifluoro-1-butanesulphonate hydrochloride]	0.11	720	0.03
CC(C)[C@H](N)C(=O)OC[C@@H]1Cc2cccc(Oc3cccc(OS(=O)(=O)CCCC(F)(F)F)c3)c2C1 [Example 8, (R)-3-[2-((S)-Valinyloxymethyl)-indanyl-4-oxy]-phenyl 4,4,4-trifluoro-1-butanesulphonate hydrochloride]	0.2	–	–
NCCC(=O)OC[C@@H]1Cc2cccc(Oc3cccc(OS(=O)(=O)CCCC(F)(F)F)c3)c2C1 [Example 7, (R)-3-[2-(3-Aminopropanoyloxymethyl)-indanyl-4-oxy)-phenyl 4,4,4-trifluoro-1-butanesulphonate hydrochloride]	0.4	–	–
